The target in data set [1] is Procathepsin L (Homo sapiens) (UniProt P07711). The experiment in a line: Binding affinity to Cathepsin L (unknown origin) expressed in Komagataella pastoris GS115 assessed as thermal stabilization by mesuring melting temperature by nanoDSF analysis. (In general: In DSF a fluorescence change marks the thermal transition of the protein.)
Data set [2] concerns SARS-CoV-2. The experiment in a line: Antiviral activity against SARS CoV-2 USA-WA1/2020 infected in african green monkey Vero 76 cells assessed as virus-induced cytopathic effect incubated for 5 days by neutral red uptake assay. Type of data set: functional, organism-based. The following applies: Severe acute respiratory syndrome coronavirus 2, USA-WA1/2020, Vero 76, 120 h.

Data set [3] can be described thus: Cytotoxicity against african green monkey Vero 76 cells assessed as reduction in cell viability incubated for 48 hrs by neutral red uptake assay. Type of data set: toxicity, cell-based. The settings on record: chlorocebus sabaeus.
For data set [4], the system named is SARS-CoV-2. Type of data set: functional, Severe acute respiratory syndrome coronavirus 2, Omicron, Vero. The settings on record: dose 100 nM; time 24 hrs.

Procathepsin L (Homo sapiens), sequence (P07711 114-333 limits assumed): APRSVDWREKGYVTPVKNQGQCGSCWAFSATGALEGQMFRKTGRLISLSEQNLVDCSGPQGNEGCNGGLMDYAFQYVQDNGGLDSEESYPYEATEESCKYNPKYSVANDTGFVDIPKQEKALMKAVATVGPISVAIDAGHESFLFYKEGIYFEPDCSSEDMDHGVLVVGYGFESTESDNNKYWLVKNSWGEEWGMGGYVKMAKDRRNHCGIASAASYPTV

As for `CN(C)C(=O)C(Cc1ccccc1)NC(=O)[C@H]1O[C@@H]1C(=O)NCCc1ccccn1` (relative stereo), in data set [1], the ΔTm (usually the change in melting temperature against a reference sample) stood at 12 °C.
For the molecule `CCCC(NC(=O)C(CC(C)C)NC(=O)OCc1ccccc1)C(=O)C(=O)NCc1ccccn1` (centres undefined), in the data set with SARS-CoV-2 [2], the EC50 (commonly the concentration that produces a half-maximal response) is below 1 µM. Also, in data set [3], the CC50 (as a rule, the concentration that lowers cell viability or growth by half) at 48 h was above 50 µM. For the same molecule, the Activity with SARS-CoV-2 [4] is given as 50%.

(Values after ChEMBL document CHEMBL5543154, “Structural Elucidation and Antiviral Activity of Covalent Cathepsin L Inhibitors” (J Med Chem, 2024).)
